Test results: publication PMC2365111, “Cytotoxicity of Poly(Phenolic)Sulfonates and Their Sodium Salts in L1210 Lymphoid Leukemia Cells” (Metal-Based Drugs, 1998)

Target: T1, Ribonucleoside reductase (Mus musculus, UniProt P07742)
T1 construct: preparing the appropriate L1210 cell homogenates or subcellular fractions; endogenous in cells; host or cells: L1210 murine lymphoid leukemia cells, homogenate or subcellular fraction
T1 sequence (P07742 1-792): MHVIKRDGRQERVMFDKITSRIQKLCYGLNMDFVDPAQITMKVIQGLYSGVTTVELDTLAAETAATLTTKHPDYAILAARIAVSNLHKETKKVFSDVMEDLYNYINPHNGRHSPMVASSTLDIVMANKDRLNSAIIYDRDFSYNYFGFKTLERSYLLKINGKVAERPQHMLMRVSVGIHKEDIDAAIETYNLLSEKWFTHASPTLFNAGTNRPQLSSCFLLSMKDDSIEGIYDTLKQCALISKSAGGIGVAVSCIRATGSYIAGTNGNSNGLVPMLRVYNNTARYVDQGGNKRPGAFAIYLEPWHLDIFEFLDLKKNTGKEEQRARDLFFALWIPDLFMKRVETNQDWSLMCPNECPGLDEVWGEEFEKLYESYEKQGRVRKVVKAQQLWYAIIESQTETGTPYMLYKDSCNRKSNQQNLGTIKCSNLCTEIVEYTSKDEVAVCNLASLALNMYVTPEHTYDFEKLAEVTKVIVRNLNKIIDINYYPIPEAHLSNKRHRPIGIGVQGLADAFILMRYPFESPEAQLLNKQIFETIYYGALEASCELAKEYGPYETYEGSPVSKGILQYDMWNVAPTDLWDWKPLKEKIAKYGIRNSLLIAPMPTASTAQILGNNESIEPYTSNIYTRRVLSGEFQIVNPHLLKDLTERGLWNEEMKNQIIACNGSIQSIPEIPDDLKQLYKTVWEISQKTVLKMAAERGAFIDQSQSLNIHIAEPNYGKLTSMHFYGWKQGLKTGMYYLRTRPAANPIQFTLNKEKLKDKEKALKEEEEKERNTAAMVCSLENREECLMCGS
T1 sequence (P11157 1-390 partner): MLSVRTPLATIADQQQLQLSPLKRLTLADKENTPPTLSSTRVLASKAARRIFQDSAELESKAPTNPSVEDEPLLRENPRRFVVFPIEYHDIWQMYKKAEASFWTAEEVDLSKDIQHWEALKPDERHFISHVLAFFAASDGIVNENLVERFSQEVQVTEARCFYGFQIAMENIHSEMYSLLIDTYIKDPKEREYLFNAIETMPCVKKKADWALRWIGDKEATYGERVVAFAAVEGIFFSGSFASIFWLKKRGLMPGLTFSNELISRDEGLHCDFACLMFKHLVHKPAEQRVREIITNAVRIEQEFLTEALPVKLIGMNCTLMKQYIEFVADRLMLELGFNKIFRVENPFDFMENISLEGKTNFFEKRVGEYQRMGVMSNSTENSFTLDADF
Experiment: Ribonucleoside reductase activity, L1210
Type: biochemical
Settings: 60 min, N=6
Excerpt: CYTOTOXlCITY OF POLY(PHENOLIC)SULFONATES AND THEIR SODIUM SALTS IN L1210 LYMPHOID LEUKEMIA CELLS Fei Wang, Amy E. Warren, Cheryl R. Barnes and Iris H. Hall* Division of Medicinal Chemistry and Natural Products University of North Carolina Chapel Hill, N.C. […] Because ofthese properties it was surmised that these poly(phenolic)sulfonated compounds may have antineoplastic activity. METHODS Source of Compounds Test compounds were supplied by GeneLabs, Inc. [Redwood City, CA [Table 1]. Radioisotopes were obtained from New England Nuclear [Dupont, Boston, MA]. Substrates and co-factors were purchased om Sigma Chemical Co., [St Louis, MO]. Pentosan sulfate and other antineoplastic standards were obtained from Sigma Chemical Co. Tumor lines were obtained from American Type Culture Collection [Rockville, MD]. 147 Vol. 5, No. 3, 1998 Cytotoxicity ofSodium Poly(Phenolic)Sulfonates in L1210 Lymphoid Leukemia Cells Table 1 Structures of Poly(phenolic)sulfonate Compounds O2R" n Compound R' R" n MW # G1-2041 H OH 8 1489.46 G1-2029 H OH 6 1117.09 G1-2030 H OH 4 744.73 GI-2021 CH3 ONa 8 1777.5 G1-2057 CH3 ONa 4 888.75 GI-2158 CH3 ONa 6 1333.13 GI-2063 OCH3 ONa 8 2001.65 G1-2042 OAc ONa 8 2017.73 Cytotoxicity Poly(phenolic)sulfonates were tested for cytotoxic activity by homogenizing drug in 0.05% Tween 80/H20 to give a mg/ml stock concentration. These solutions were sterilized by passing them through an acrodisc ([…]). The following cell lines were maintained by literature techniques: murine L1210 lymphoid leukemia, P-388 lymphocytic leukemia, rat UMR 106 osteosarcoma, human Tmolt3 acute lymphoblastic T cell leukemia, HUT-8 lymphoma, HeLa-S suspended cervical carcinoma, HeLa solid cervical carcinoma, KB epidermoid nasopharynx, A431 epidermoid carcinoma, colorectal adenocarcinoma SW480, HCT-8 ileocecal adenocarcinoma, lung bronchogenic MB-9812, A549 lung carcinoma, and glioma HS683. Geran et al.'s protocol was used to assess the cytotoxicity of the compounds and standards in each cell line. Cell numbers were determined by the trypan blue exclusion technique. Solid tumor cytotoxicity was determined by Leibovitz et al. 's method utilizing crystal violeeOH and read at 562 nm (Molecular Devices). Values for cytotoxicity were expressed as EDs0 g/ml, i.e. the concentration ofthe compound inhibiting 50% ofcell growth. A value of less than 4 µg/ml was required for significant activity ofgrowth inhibition. Incorporation Studies Incorporation of labeled precursors into 3H-DNA, 3H -RNA and 3H -protein for 10 L1210 cells was obtained. The concentration response for inhibition of DNA, RNA and protein synthesis of the compounds at 25, 50 and 100 l.tM was determined for 60 min incubations. Incorporation of 14C -glycine (53.0 mCi/mmol) into purines was obtained by the method of Cadman et al.[12]. Incorporation of 4C- formate (53.0 mCi/mmol) into pyrimidines was determined by the method of Christopherson et al.[13]. Enzyme Assays Inhibition of various enzyme activities was performed by first preparing the appropriate L1210 cell homogenates or subcellular fractions, then adding the drug to be tested during the enzyme assay. For the concentration response studies, inhibition of enzyme activity was determined at 25, 50 and 100 l.tM of compounds G1-2021, G1-2029, GI-2041 and G1-2063 after 60 min incubations. DNA polymerase Ot activity was determined in cytoplasmic extracts isolated by Eichler et aL's method. The DNA polymerase assay was described by Sedwick et al.[15] using 3H-TTP. Messenger-, ribosomal- and transfer-RNA polymerase enzymes were isolated with different concentrations of ammonium sulfate; individual RNA polymerase activities were determined using 3H -UTP 16,17]. Ribonucleoside reductase activity was measured using 4C -CDP with dithioerythritol. The deoxyribonucleotides 4C -dCDP were separated from the ribonucleotides by TLC on PEI plates. […]

With `O=S(=O)(O)c1cc2c(O)c(c1)Cc1cc(S(=O)(=O)O)cc(c1O)Cc1cc(S(=O)(=O)O)cc(c1O)Cc1cc(S(=O)(=O)O)cc(c1O)Cc1cc(S(=O)(=O)O)cc(c1O)Cc1cc(S(=O)(=O)O)cc(c1O)Cc1cc(S(=O)(=O)O)cc(c1O)Cc1cc(S(=O)(=O)O)cc(c1O)C2` [GI-2041] the Ribonucleoside reductase (25 μM) was 127+5% of Control and the Ribonucleoside reductase (50 μM) was 127+6% of Control.

`O=S(=O)(O)c1cc2c(O)c(c1)Cc1cc(S(=O)(=O)O)cc(c1O)Cc1cc(S(=O)(=O)O)cc(c1O)Cc1cc(S(=O)(=O)O)cc(c1O)Cc1cc(S(=O)(=O)O)cc(c1O)Cc1cc(S(=O)(=O)O)cc(c1O)C2` [GI-2029] was tested, and the Ribonucleoside reductase (25 μM) was 130+5% of Control, the Ribonucleoside reductase (50 μM) was 130+6% of Control and the Ribonucleoside reductase (100 μM) was 141+5% of Control.

In the case of `COc1c2cc(S(=O)(=O)[O-])cc1Cc1cc(S(=O)(=O)[O-])cc(c1OC)Cc1cc(S(=O)(=O)[O-])cc(c1OC)Cc1cc(S(=O)(=O)[O-])cc(c1OC)Cc1cc(S(=O)(=O)[O-])cc(c1OC)Cc1cc(S(=O)(=O)[O-])cc(c1OC)Cc1cc(S(=O)(=O)[O-])cc(c1OC)Cc1cc(S(=O)(=O)[O-])cc(c1OC)C2.[Na+].[Na+].[Na+].[Na+].[Na+].[Na+].[Na+].[Na+]` [GI-2021], the Ribonucleoside reductase (25 μM) is reported as 158+6% of Control, the Ribonucleoside reductase (50 μM) is reported as 124+5% of Control and the Ribonucleoside reductase (100 μM) is reported as 91+5% of Control.
